“Also recorded” adds a separate entry of the source.
What was measured:
[1] = test system: PGE2 hyperalgesia in male and female rats; experiment: PGE2-induced mechanical hyperalgesia, Randall-Selitto paw-withdrawal test; assay type: in vivo, Sprague-Dawley rats; conditions: for PGE2-induced hyperalgesia (mechanical nociceptive threshold): topical 2 μg/μL in 30 μL DMSO vehicle, 30 and 60 min after PGE2
Description: (§1) Experimental animals. Experiments were performed on 220-400 g male and female Sprague-Dawley rats, purchased from Charles River Laboratories (Hollister, CA, USA), housed three per cage, under a 12-hour light/dark cycle, in a temperature- and humidity-controlled animal care facility at the University of California, San Francisco. Food and water were available ad libitum. Experimental protocols were approved by the University of California, San Francisco, Institutional Animal Care and Use Committee, and adhered to the National Institutes of Health Guidelines for the care and use of laboratory animals.
(§2) Measurement of nociceptive threshold. Mechanical nociceptive threshold was quantified with an Ugo Basile Analgesymeter (Stoelting, Wood Dale, IL, USA), used to perform the Randall-Selitto paw-withdrawal test [61; 68; 69]. This device uses a dome-shaped plinth to apply a mechanical force that increases linearly with time, to the dorsum of a rat's hindpaw. To perform the Randall-Selitto paw-withdrawal test, rats were placed in cylindrical acrylic restrainers with lateral ports that allow access to the hind paw, as described previously. Rats were acclimatized to the testing procedure by placing them in restrainers for 1 h per day for 3 consecutive daily training sessions, and for 30-40 min prior to experiments.
(§3) Mechanical nociceptive threshold is defined as the force, in grams, applied by the plinth to the dorsum of the hindpaw, at which a rat withdraws its paw from the stimulus. Baseline paw-withdrawal threshold is defined as the mean of three readings taken before administration of test agents. To minimize experimenter bias, individuals conducting experiments were blinded to experimental treatments. Each experiment was performed on a different group of rats. Data are presented as mechanical nociceptive threshold, in grams (g) or percentage change from preintervention baseline.
Hyaluronans were initially dissolved in distilled water (dH2O) at a concentration of 10 μg/μL, stock solution, and further diluted by adding DMSO with three final concentrations of hyaluronan (1, 2 and 4 μg/μL), protamine or terpene; unless otherwise stated, the final concentration of DMSO was 75%. The DMSO vehicle was 75% DMSO in 0.9% saline. In one experiment, 500-1200 kDa hyaluronan was administered topically in 0.9% saline vehicle. PGE2 was dissolved in 0.9% saline at the same final concentration that we previously injected intradermally (100 ng/5 μL). […]

[2] = test system: rats with oxaliplatin CIPN; experiment: Oxaliplatin CIPN mechanical hyperalgesia, Randall-Selitto paw-withdrawal test; assay type: in vivo, Sprague-Dawley rats
Description: as §1, §2, §3
(§4) Hyaluronans were initially dissolved in distilled water (dH2O) at a concentration of 10 μg/μL, stock solution, and further diluted by adding DMSO with three final concentrations of hyaluronan (1, 2 and 4 μg/μL), protamine or terpene; unless otherwise stated, the final concentration of DMSO was 75%. The DMSO vehicle was 75% DMSO in 0.9% saline. In one experiment, 500-1200 kDa hyaluronan was administered topically in 0.9% saline vehicle. PGE2 was dissolved in 0.9% saline at the same final concentration that we previously injected intradermally (100 ng/5 μL). In the experiments in which hyaluronan was dissolved in protamine or terpene vehicle, protamine was first dissolved in distilled water (dH2O) to a concentration of 5 μg/μ1, stock solution of hyaluronan was combined with protamine at the final concentration of 2 μg/μ1, in a volume of 3 μl, for topical administration; terpene was first dissolved in dH2O at the concentration of 2 μg/μ1, then hyaluronan was dissolved in stock solution of terpene to its final concentration of 2 μg/μ1, in a volume of 3 μl, for topical administration).
Oxaliplatin CIPN: Oxaliplatin was freshly dissolved in 0.9% saline at a concentration of 2 mg/mL just prior to its tail vein intravenous (i.v.) administration (1 mL/kg), to rats briefly anesthetized with isoflurane (2.5% in O2).
Hyaluronans (30 μL) were administered topically on the dorsum of the hind paw, dispensed from a P200 pipette (Gilson, Middleton, WI, USA) with a plastic pipette tip and then spread manually. […]
(§5) Before use, ODNs were reconstituted in nuclease-free 0.9% saline and then administered by the intrathecal (i.t.) route. As described previously, rats were anesthetized with isoflurane (2.5% in O2) and 120 μg of ODN, in a volume of 20 μL, injected i.t., using a syringe ([…]) attached to a 29-gauge hypodermic needle that was inserted into the subarachnoid space, between the L4 and L5 vertebrae. The i.t. site of the injectate was confirmed by a sudden flick of the rat's tail, a reflex evoked by subarachnoid space access and bolus i.t. injection. […]

rats = conditions: previously shown; cited from earlier work
[3] = test system: rats with paclitaxel CIPN; experiment: Paclitaxel CIPN mechanical hyperalgesia, Randall-Selitto paw-withdrawal test; assay type: in vivo, Sprague-Dawley rats
Description: as §1, §2, §3, §4
Paclitaxel CIPN: Paclitaxel was dissolved in Cremophor EL and ethanol (1:1) [1; 6; 20; 22] and diluted in 0.9% saline to a concentration of 1 mg/mL, just prior to its intraperitoneal (i.p.) administration (1 mg/kg, i.p.) [19; 42] to rats briefly anesthetized with isoflurane (2.5% in O2), every other day for a total of 4 doses.
Hyaluronans (30 μL) were administered topically on the dorsum of the hind paw, dispensed from a P200 pipette (Gilson, Middleton, WI, USA) with a plastic pipette tip and then spread manually.
Antisense oligodeoxynucleotides (ODNs).
as §5, with “vertebrae.” for “vertebrae. The i.t. site of the injectate was confirmed by a sudden flick of the rat's tail, a reflex evoked by subarachnoid space access and bolus i.t. injection.”

[4] = test system: rats with bortezomib CIPN; experiment: Bortezomib CIPN mechanical hyperalgesia, Randall-Selitto paw-withdrawal test; assay type: in vivo, Sprague-Dawley rats; conditions: topical 2 μg/μL
Description: as §1, §2
as §3, with “baseline. […]” for “baseline.”

[5] = female rats given i.t. GPR30 antisense or mismatch ODN, topical 2 μg/μL, 30 μL
[6] = gonad intact female rats, topical 2 μg/μL, 30 μL in DMSO vehicle
[7] = male rats given i.t. CD44 antisense or mismatch ODN, topical 2 μg/μL, 30 μL in DMSO
[8] = male rats, reapplied at the same site after first effect wore off, DMSO vehicle
[9] = male rats, topical 2 μg/μL, 30 μL in DMSO, day 7
[10] = male rats, topical 2 μg/μL, 30 μL in DMSO, repeated-administration experiment
[11] = ovariectomized female rats, topical 2 μg/μL, 30 μL in DMSO

With hyaluronan [500-1200 kDa hyaluronan] the “PGE2-induced hyperalgesia (mechanical nociceptive threshold)” value ([1]; female rats) was “attenuated PGE2-induced hyperalgesia”, the “PGE2-induced hyperalgesia (mechanical nociceptive threshold)” value ([1]; male rats) was “attenuated PGE2-induced hyperalgesia” and the “magnitude of topical anti-hyperalgesia compared with intradermal injection” value ([1]; topical, combined with DMSO) was “anti-hyperalgesia of similar magnitude to that produced by its intradermal injection”. The “duration of anti-hyperalgesic effect after initial topical application” value ([2]; CIPN rats, initial application, DMSO vehicle) was “approximately 60 minutes”, the “hyperalgesia induced by oxaliplatin” value [2, 5] was “attenuated the hyperalgesia induced by oxaliplatin only in the GPR30 antisense-treated group” and the “hyperalgesia induced by oxaliplatin” value [2, 6] was “did not attenuate hyperalgesia”. For the same substance, the “hyperalgesia induced by oxaliplatin” value [2, 7] was “only attenuated the hyperalgesia induced by oxaliplatin in the CD44 mismatch-treated group”, the “CIPN hyperalgesia, effect of hyaluronan molecular weight range” value ([2]; male rats with oxaliplatin CIPN, topical, combined with DMSO) was “produced robust anti-hyperalgesia, of similar magnitude and duration” and the “time at which anti-hyperalgesia was still present after the second administration” value [2, 8] was no less than 180 min. The “oxaliplatin CIPN hyperalgesia” value ([2]; male rats, topical 1 μg/μL, 30 μL in DMSO, day 7) was “only attenuates CIPN hyperalgesia 10 min after application”, the “oxaliplatin CIPN hyperalgesia” value ([2]; male rats, topical 2 μg/μL in 0.9% saline, without DMSO) was “did not attenuate oxaliplatin CIPN hyperalgesia” and the “anti-hyperalgesia in oxaliplatin CIPN” value ([2]; male rats, topical 2 μg/μL, 30 μL in 5% DMSO) was “did not produce anti-hyperalgesia”. For the same substance, the “anti-hyperalgesia in oxaliplatin CIPN” value ([2]; male rats, topical 2 μg/μL, 30 μL in 15% DMSO) was “did not produce anti-hyperalgesia”, the “anti-hyperalgesia in oxaliplatin CIPN” value ([2]; male rats, topical 2 μg/μL, 30 μL in 20% DMSO) was “produced anti-hyperalgesia” and the “anti-hyperalgesia in oxaliplatin CIPN” value ([2]; male rats, topical 2 μg/μL, 30 μL in 25% DMSO) was “produced anti-hyperalgesia”. For the same substance, the “anti-hyperalgesia in oxaliplatin CIPN” value ([2]; male rats, topical 2 μg/μL, 30 μL in 50% DMSO) was “produced anti-hyperalgesia”, the “anti-hyperalgesia in oxaliplatin CIPN” value ([2]; male rats, topical 2 μg/μL, 30 μL in 75% DMSO) was “produced anti-hyperalgesia” and the “oxaliplatin CIPN hyperalgesia” value [2, 9] was “attenuated hyperalgesia 10, 30 and 60 min after application; also recorded: induced anti-hyperalgesia”. For the same substance, the “time by which anti-hyperalgesia dissipated, first administration” value [2, 10] was no more than 120 min, the “oxaliplatin CIPN hyperalgesia” value ([2]; male rats, topical 4 μg/μL, 30 μL in DMSO, day 7) was “attenuated hyperalgesia 10, 30 and 60 min after application” and the “time after application by which the anti-hyperalgesic effect dissipated” value ([2]; male rats, topical 2 and 4 μg/μL in DMSO) was no more than 120 min. For the same substance, the “anti-hyperalgesia in oxaliplatin-induced CIPN” value [2, 11] was “induced anti-hyperalgesia of similar magnitude to that observed in gonad intact male rats”, the “nociceptive effect of intradermal injection” value (rats) was “induced anti-hyperalgesia” and the “hyperalgesia induced by paclitaxel” value [3, 5] was “only attenuated the hyperalgesia induced by paclitaxel in the GPR30 antisense-treated group”. The “hyperalgesia induced by paclitaxel” value [3, 6] was “did not attenuate hyperalgesia”, the “hyperalgesia induced by paclitaxel” value [3, 7] was “attenuated the hyperalgesia induced by paclitaxel only in the CD44 mismatch-treated group” and the “time at which anti-hyperalgesia was still present after the second administration” value [3, 8] was no less than 180 min. The “hyperalgesia induced by paclitaxel” value [3, 9] was “attenuated the hyperalgesia induced by paclitaxel”, the “time by which anti-hyperalgesia dissipated, first administration” value [3, 10] was no more than 120 min and the “anti-hyperalgesia in paclitaxel-induced CIPN” value [3, 11] was “induced anti-hyperalgesia of similar magnitude to that observed in gonad intact male rats”. The “hyperalgesia induced by bortezomib” value ([4]; female rats, 30 μL in DMSO vehicle) was “did not attenuate hyperalgesia” and the “hyperalgesia induced by bortezomib” value ([4]; male rats, 30 μL in DMSO, day 7) was “attenuated hyperalgesia induced by bortezomib”.

Source: patent US20240156856A1, “NOVEL APPLICATIONS OF HYALURONIC ACID FOR TREATMENT OF PAIN AND PRURITIS” (THE REGENTS OF THE UNIVERSITY OF CALIFORNIA, priority 2022, published 2024)
